IC50 data for 19 compounds are collected here from patent US9371294B2, “Cycloalkenyl aryl derivatives for CETP inhibitor” (CHONG KUN DANG PHARMACEUTICAL CORP., priority 2011, dated 2016).

For orientation: IC50 means the concentration that inhibits the measured activity by half. Lower therefore signals greater potency.

In this assay the target is T1, cholesteryl ester transfer protein (Homo sapiens, UniProt P11597).
T1 construct: As a source of cholesteryl ester transfer protein, plasma from healthy humans was used; from tissue; host or cells: plasma from healthy humans
T1 sequence (P11597 18-493): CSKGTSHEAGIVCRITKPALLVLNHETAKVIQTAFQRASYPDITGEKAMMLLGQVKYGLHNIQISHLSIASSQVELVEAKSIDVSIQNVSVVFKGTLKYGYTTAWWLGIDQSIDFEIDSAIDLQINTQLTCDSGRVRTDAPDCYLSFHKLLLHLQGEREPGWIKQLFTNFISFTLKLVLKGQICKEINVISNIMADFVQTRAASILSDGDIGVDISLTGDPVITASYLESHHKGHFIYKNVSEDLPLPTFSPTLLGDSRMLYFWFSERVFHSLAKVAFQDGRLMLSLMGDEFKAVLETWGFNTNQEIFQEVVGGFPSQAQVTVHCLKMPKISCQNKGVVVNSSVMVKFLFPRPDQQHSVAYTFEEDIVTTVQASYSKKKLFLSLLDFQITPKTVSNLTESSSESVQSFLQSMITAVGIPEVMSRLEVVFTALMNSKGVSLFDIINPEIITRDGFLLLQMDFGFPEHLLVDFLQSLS
Put plainly: In vitro test for the ability to inhibit cholesteryl ester transfer. It is filed as biochemical. Particulars: [3H]-cholesteryl oleate transfer from rHDL-agarose to LDL; human plasma as CETP source; 37° C.; 16-10000 nM, duplicate. The text has this:
In Vitro Test for the Ability to Inhibit Cholesteryl Ester Transfer
1. Preparation of Cholesteryl Ester Donor
In order to prepare a cholesteryl ester donor to be used in the test, a radiolabeled recombinant HDL containing [^3H]-cholesteryl oleate (GE healthcare, TRK886, 3.5 μCi/mg of apoA-1) and apoA-1 was synthesized. Then, rHDL-agarose obtained by immobilizing the recombinant HDL with CNBr-activated Sepharose 4B resin (Amersham Biosciences, Sweden) was used in the test.
2. Cholesteryl Ester Transfer Test
As a source of cholesteryl ester transfer protein, plasma from healthy humans was used, and as cholesteryl ester receptor, LDL from healthy humans was used. Each of test compounds was added to be final concentrations of 16, 80, 400, 2000 and 10000 nM and tested in duplicate. In order to test cholesteryl ester transfer, 20 μl of plasma, 50 μl of LDL (0.25 mg/ml) and 50 μl of rHDL-agarose (0.25 mg/ml) were mixed with each other, and a solution of each test compound was added thereto and reacted thereto at 37° C. Then, the reaction solution was centrifuged at 4° C. for 3 minutes, thereby the reaction was stopped. 150 μl of the supernatant was transferred into a 96-well plate for radioactivity measurement, and the radioactivity thereof was measured with a beta-ray detector.
3. Statistical Processing
The ratio of [^3H]-cholesteryl oleate transferred from HDL to LDL was determined, and based on the determined ratio, the IC50 value of each compound was determined using GraphPad Prism 5.0.

Each structure is given as a SMILES string.

For the compound `COc1cc(F)c(C(C)C)cc1C1=C(CN2C(=O)O[C@H](c3cc(C(F)(F)F)cc(C(F)(F)F)c3)[C@@H]2C)CC(F)(F)CC1` [Compound 123, (4S,5R)-5-(3,5-bis(trifluoromethyl)phenyl)-3-((5,5-difluoro-2-(4-fluoro-5-isopropyl-2-methoxyphenyl)cyclohex-1-enyl)methyl)-4-methyloxazolidin-2-one], the IC50 turned out to be 0.02 µM.

The compound `COc1ccc(C(C)O)cc1C1=C(CN2C(=O)O[C@H](c3cc(C(F)(F)F)cc(C(F)(F)F)c3)[C@@H]2C)CCCC1` (stereo partly drawn) [Compound 80, (4S,5R)-5-(3,5-bis(trifluoromethyl)phenyl)-3-((2-(5-(1-hydroxyethyl)-2-methoxyphenyl)cyclohex-1-enyl)methyl)-4-methyloxazolidin-2-one] returned an IC50 of 0.1 µM.

In turn, `COc1ccc(N(C)C(=O)C(C)C)cc1C1=C(CN2C(=O)O[C@H](c3cc(C(F)(F)F)cc(C(F)(F)F)c3)[C@@H]2C)CCCC1` [Compound 86, N-(3-(2-(((4S,5R)-5-(3,5-bis(trifluoromethyl)phenyl)-4-methyl-2-oxooxazolidin-3-yl)methyl)cyclohex-1-enyl)-4-methoxyphenyl)-N-methylisobutyramide] displayed an IC50 of 0.11 µM.

As for `COc1ccc(C(C)(C)O)cc1C1=C(CN2C(=O)O[C@H](c3cc(C(F)(F)F)cc(C(F)(F)F)c3)[C@@H]2C)CC(C)(C)CC1` [Compound 104, (4S,5R)-5-(3,5-bis(trifluoromethyl)phenyl)-3-((2-(5-(2-hydroxypropan-2-yl)-2-methoxyphenyl)-5,5-dimethylcyclohex-1-enyl)methyl)-4-methyloxazolidin-2-one], the IC50 was found to be 0.18 µM.

The compound `COc1cc(F)c(C(C)C)cc1C1=C(CN2C(=O)O[C@H](c3cc(C(F)(F)F)cc(C(F)(F)F)c3)[C@@H]2C)CN(CC(F)(F)F)CC1` [Compound 268, (4S,5R)-5-(3,5-bis(trifluoromethyl)phenyl)-3-((4-(4-fluoro-5-isopropyl-2-methoxyphenyl)-1-(2,2,2-trifluoroethyl)-1,2,5,6-tetrahydropyridin-3-yl)methyl)-4-methyloxazolidin-2-one] had an IC50 of 0.046 µM.

Take `COc1ccc(C(C)C)cc1C1=C(CN2C(=S)O[C@H](c3cc(C(F)(F)F)cc(C(F)(F)F)c3)[C@@H]2C)CC(C)(C)CC1` [Compound 15, (4S,5R)-5-(3,5-bis(trifluoromethyl)phenyl)-3-((2-(5-isopropyl-2-methoxyphenyl)-5,5-dimethylcyclohex-1-enyl)methyl)-4-methyloxazolidine-2-thione]: the IC50 was determined as 0.6 µM.

`COc1ccc(C(C)O)cc1C1=C(CN2C(=O)O[C@H](c3cc(C(F)(F)F)cc(C(F)(F)F)c3)[C@@H]2C)CC(C)(C)CC1` (stereo partly drawn) [Compound 103, (4S,5R)-5-(3,5-bis(trifluoromethyl)phenyl)-3-((2-(5-(1-hydroxyethyl)-2-methoxyphenyl)-5,5-dimethylcyclohex-1-enyl)methyl)-4-methyloxazolidin-2-one] registered an IC50 of 0.03 µM.

For `COc1ccc(CC(C)(C)c2nnn(C)n2)cc1C1=C(CN2C(=O)O[C@H](c3cc(C(F)(F)F)cc(C(F)(F)F)c3)[C@@H]2C)CC(C)(C)CC1` [Compound 341, (4S,5R)-5-(3,5-bis(trifluoromethyl)phenyl)-3-((2-(2-methoxy-5-(2-methyl-2-(2-methyl-2H-tetrazol-5-yl)propyl)phenyl)-5,5-dimethylcyclohex-1-enyl)methyl)-4-methyloxazolidin-2-one], the IC50 amounted to 0.013 µM.

`COc1cc(F)c(C(C)C)cc1C1=C(CN2C(=S)O[C@H](c3cc(C(F)(F)F)cc(C(F)(F)F)c3)[C@@H]2C)CCCC1` [Compound 28, (4S,5R)-5-(3,5-bis(trifluoromethyl)phenyl)-3-((2-(4-fluoro-5-isopropyl-2-methoxyphenyl)cyclohex-1-enyl)methyl)-4-methyloxazolidine-2-thione] yielded an IC50 of 0.39 µM.

Take `COC(=O)N(C)c1ccc(OC)c(C2=C(CN3C(=O)O[C@H](c4cc(C(F)(F)F)cc(C(F)(F)F)c4)[C@@H]3C)CC(C)(C)CC2)c1` [Compound 124, methyl 3-(2-(((4S,5R)-5-(3,5-bis(trifluoromethyl)phenyl)-4-methyl-2-oxooxazolidin-3-yl)methyl)-4,4-dimethylcyclohex-1-enyl)-4-methoxyphenyl(methyl)carbamate]: the IC50 came out at 0.02 µM.

With `COc1cc2c(cc1C1=C(CN3C(=O)O[C@H](c4cc(C(F)(F)F)cc(C(F)(F)F)c4)[C@@H]3C)CC(C)(C)CC1)OCO2` [Compound 223, (4S,5R)-5-(3,5-bis(trifluoromethyl)phenyl)-3-((2-(6-methoxybenzo[d][1,3]dioxol-5-yl)-5,5-dimethylcyclohex-1-enyl)methyl)-4-methyloxazolidin-2-one], the IC50 is 0.1 µM.

Compound `COc1ccc(CC(C)(C)c2nn[nH]n2)cc1C1=C(CN2C(=O)O[C@H](c3cc(C(F)(F)F)cc(C(F)(F)F)c3)[C@@H]2C)CC(C)(C)CC1` [Compound 340, (4S,5R)-5-(3,5-bis(trifluoromethyl)phenyl)-3-((2-(2-methoxy-5-(2-methyl-2-(2H-tetrazol-5-yl)propyl)phenyl)-5,5-dimethylcyclohex-1-enyl)methyl)-4-methyloxazolidin-2-one] came in with an IC50 of 0.008 µM.

The compound `COc1cc(F)c(OCC(F)(F)F)cc1C1=C(CN2C(=O)O[C@H](c3cc(C(F)(F)F)cc(C(F)(F)F)c3)[C@@H]2C)CC(C)(C)CC1` [Compound 222, (4S,5R)-5-(3,5-bis(trifluoromethyl)phenyl)-3-((2-(4-fluoro-2-methoxy-5-(2,2,2-trifluoroethoxy)phenyl)-5,5-dimethylcyclohex-1-enyl)methyl)-4-methyloxazolidin-2-one] came in with an IC50 of 0.04 µM.

As for `COc1ccc(C(F)(F)F)cc1C1=C(CN2C(=O)O[C@H](c3cc(C(F)(F)F)cc(C(F)(F)F)c3)[C@@H]2C)CC(C(F)(F)F)CC1` (stereo partly drawn) [Compound 193, (4S,5R)-5-(3,5-bis(trifluoromethyl)phenyl)-3-((2-(2-methoxy-5-(trifluoromethyl)phenyl)-5-(trifluoromethyl)cyclohex-1-enyl)methyl)-4-methyloxazolidin-2-one], the IC50 turned out to be 0.04 µM.

In the case of `COc1ccc(NS(=O)(=O)C(F)(F)F)cc1C1=C(CN2C(=O)O[C@H](c3cc(C(F)(F)F)cc(C(F)(F)F)c3)[C@@H]2C)CC(C)(C)CC1` [Compound 137, N-(3-(2-(((4S,5R)-5-(3,5-bis(trifluoromethyl)phenyl)-4-methyl-2-oxooxazolidin-3-yl)methyl)-4,4-dimethylcyclohex-1-enyl)-4-methoxyphenyl)trifluoromethanesulfonamide], half-maximal inhibition (IC50) was put at 0.08 µM.

In turn, `COc1ccc(CCC(=O)O)cc1C1=C(CN2C(=O)O[C@H](c3cc(C(F)(F)F)cc(C(F)(F)F)c3)[C@@H]2C)CC(C)(C)CC1` [Compound 273, 3-(3-(2-(((4S,5R)-5-(3,5-bis(trifluoromethyl)phenyl)-4-methyl-2-oxooxazolidin-3-yl)methyl)-4,4-dimethylcyclohex-1-enyl)-4-methoxyphenyl)propanoic acid] registered an IC50 of 0.217 µM.

In turn, `COc1ccc(CC2(C(=O)O)CCCC2)cc1C1=C(CN2C(=O)O[C@H](c3cc(C(F)(F)F)cc(C(F)(F)F)c3)[C@@H]2C)CC(C)(C)CC1` [Compound 324, 1-(3-(2-(((4S,5R)-5-(3,5-bis(trifluoromethyl)phenyl)-4-methyl-2-oxooxazolidin-3-yl)methyl)-4,4-dimethylcyclohex-1-enyl)-4-methoxybenzyl)cyclopentanecarboxylic acid] had an IC50 of 0.097 µM.

`COC(=O)Cc1cc2c(c(C3=C(CN4C(=O)O[C@H](c5cc(C(F)(F)F)cc(C(F)(F)F)c5)[C@@H]4C)CC(C)(C)CC3)c1)OCO2` [Compound 317, methyl 2-(7-(2-(((4S,5R)-5-(3,5-bis(trifluoromethyl)phenyl)-4-methyl-2-oxooxazolidin-3-yl)methyl)-4,4-dimethylcyclohex-1-enyl)benzo[d][1,3]dioxol-5-yl)acetate] returned an IC50 of 0.054 µM.

On to `COc1ccc(C2(C(N)=O)CC2)cc1C1=C(CN2C(=O)O[C@H](c3cc(C(F)(F)F)cc(C(F)(F)F)c3)[C@@H]2C)CC(C)(C)CC1` [Compound 190, 1-(3-(2-(((4S,5R)-5-(3,5-bis(trifluoromethyl)phenyl)-4-methyl-2-oxooxazolidin-3-yl)methyl)-4,4-dimethylcyclohex-1-enyl)-4-methoxyphenyl)cyclopropanecarboxamide], for which the IC50 was determined as 0.01 µM.
